Data on 1 molecule can be found in ChEMBL document CHEMBL3784949 (Psychopharmacology (Berl), 1987).

Series [1] in a line: Volume of distribution at steady state in psychotic patient (9 patients) at 3.5 +/- 1.2 mg, iv by reversed phase HPLC method. The conditions noted are these: human, in vivo, 3.5 mg, read-out: Vdss. The series is classed as ADME, organism-based.
Series [2] in a line: Terminal half life in psychotic patient (9 patients) at 3.5 +/- 1.2 mg, iv by reversed phase HPLC method. The series is classed as ADME, organism-based. The conditions noted are these: human, in vivo, 3.5 mg, read-out: beta t1/2 (converted).
The nature of series [3]: Terminal phase volume of distribution at steady state in psychotic patient (9 patients) at 3.5 +/- 1.2 mg, iv by reversed phase HPLC method based model-dependent approach analysis. It is filed as ADME, organism-based. The conditions noted are these: human, in vivo, 3.5 mg, read-out: Vbeta.
The nature of series [4]: Unbound fraction in human serum. The series is classed as ADME, cell-free.
Series [5] is described as follows: Unbound fraction in psychotic patient (9 patients) at 3.5 +/- 1.2 mg, iv by reversed phase HPLC method. It is filed as ADME, organism-based. The conditions noted are these: human, in vivo.
The nature of series [6]: Terminal phase volume of distribution at steady state in psychotic patient (9 patients) at 3.5 +/- 1.2 mg, iv by reversed phase HPLC method based model-independent approach analysis. The conditions noted are these: human, in vivo, 3.5 mg, read-out: Vbeta. The series is classed as ADME, organism-based.
Series [7] relates to Plasma. Put plainly: Plasma concentration in psychotic patient. It is filed as ADME. The conditions noted are these: human.
A short description of series [8]: Terminal phase volume of distribution at steady state in psychotic patient (9 patients) at 3.5 +/- 1.2 mg, iv by reversed phase HPLC method. The series is classed as ADME, organism-based. The conditions noted are these: human, in vivo, 3.5 mg, read-out: Vbeta.
A short description of series [9]: Terminal half life in psychotic patient (9 patients) at 2.9 +/- 1.2 mg, po by reversed phase HPLC method. The series is classed as ADME, organism-based. The conditions noted are these: human, in vivo, 2.9 mg, read-out: beta t1/2 (converted).

One may read the fraction unbound as free concentration divided by total concentration. High values mean weak binding, low ones extensive binding.

As to `O=C(CCCN1CCC(O)(c2ccc(Cl)cc2)CC1)c1ccc(F)cc1` [HALOPERIDOL], the Vd in [1] amounted to 7.9 L/kg; in [3], 9.6 L/kg; in [6] it was 9.5 L/kg; in series [8], 9.5 L/kg. The results for the half-life in [2] and in series [9] were 1130 min and 1090 min, respectively. The molecule also gave a fraction unbound in series [4] of 0.08. The molecule further registered a Fu in [5] of 0.6%. The molecule further came in with a Cp in series [7] of 5 ng/mL.
